US5594024A, “Centrally actig substituted phenylazacycloalkanes” (priority 1995, dated 1997)
Like-named read-outs stand apart in the source and are kept apart here.

Assays:
DA receptor [1] = assay: DOPA accumulation (DA synthesis rate) in non-pretreated rats after NSD 1015; settings: 100 sc
Procedure: injected with NSD 1015 (100 mg/kg, i.p.) and then killed 30 min later.
In-vivo determination of rat brain monoamine metabolites and tyrosine and tryptophan hydroxylation (biochemically monitored DA and 5-HT receptor agonist or antagonist activity).
The compounds under evaluation were tested biochemically for central DA and 5-HT receptor (pre- and/or postsynaptic) stimulating and/or blocking activity. The concept of this biochemical screening method is that a DA or 5-HT receptor agonist will stimulate the receptor and through regulatory negative feed-back systems induce a decline in tyrosine or tryptophan hydroxylating activity, respectively, and a subsequent reduction in the synthesis rate of DA and 5-HT in the presynaptic neuron. […] The biochemical experiments and the determinations of Dopa and 5-HTP by means of HPLC with electrochemical detection were performed. The antagonistic effects were seen as increases in the synthesis rate (n=4), as a result of the positive feed-back upregulation of synthesis. The effects on Dopa and 5-HTP accumulation are expressed as % of controls, which were: DOPA limbic system=447±23 ng/g and DOPA striatum=1045±47ng/g, 5-HTP limbic region 241±2 ng/g (Table 2).
Animals used in the biochemical and motor activity experiments were male rats of the Sprague-Dawley strain (ALAB, Sollentuna, Sweden), weighing 200-300 g. The rats were kept 5 per cage with free access to water and food (except for the starved animals for the experiments with per oral administration, who were only allowed water the last 18 hours before testing), at least one week from arrival until used in the experiments.
All substances to be tested were dissolved in saline immediately before use, occasionally with the addition of a few drops of glacial acetic acid and/or moderate heating in order to obtain complete dissolution. Injection volumes were 5 mL/kg.
Analysis of variance (ANOVA) followed by Fischer's test was used for the statistical calculations. P values less than 0.05 were regarded statistically significant.
DOPA accumulation (DA synthesis rate) in non-pretreated rats (Table 2). After the locomotor activity session (see Table 2, above) the rats were injected with the decarboxylase inhibitor NSD 1015 (100 mg/kg, sc) and killed 30 minutes later. The DOPA accumulation in the DA -rich limbic and striatal and the NE-rich cortical (mainly hemispheres) brain areas were expressed as % of saline treated controls.
DOPA accumulation, time course after s.c. and p.o. administration (Table 2). […] NSD 1015 (100 mg/kg, sc) was injected 30 minutes before death. The data are expressed as % of saline treated controls.

DA receptor [2] = assay: DA metabolism (DOPAC, HVA levels) in habituated rats; assay type: in vivo, rat (male Sprague-Dawley); settings: Rattus norvegicus, 1 h, 100 μmol/kg sc, habituated rats
Procedure: (§1) Footnotes Table 3. The rats were habituated to the motility meters 60 min
The rats were immediately killed after the activity session, striata
(§2) and limbic levels of DOPAC and 5HIAA were measured by means of HPLCEC. *p
(§3) In the experiments with habituated rats no NSD was administered and the animals were killed one hour after drug administration. […] The levels were expressed as % of controls (DOPAC and 5-HIAA see Table 3). The in vivo brain microdialysis experiments were performed in conscious rats as described by Waters et al., Eur. J. Pharm., 187, 425-34 (1990).
(§4) Injection volumes were 5 mL/kg.
After the activity session the rats were killed and the brain levels of HVA and DOPAC were measured (data are expressed as means ±SEM).

non-pretreated rats = assay: Locomotor activity and gross behavior in non-habituated (non-pretreated) rats; settings: 100 sc, non-pretreated rats
D2 receptors = target: T1, D2 receptors (Rattus norvegicus, UniProt P61169); assay: D2 antagonist binding ([3H]-spiperone), rat striatum; settings: [3H]-spiperone, rat striatum; read-out: in vitro binding IC50, D2 -spip
T1 construct: Preparation of rat striatal membranes for (3H)-spiperone; from tissue; host or cells: rat striatum (striatal membranes)
T1 sequence (P61169 whole entry): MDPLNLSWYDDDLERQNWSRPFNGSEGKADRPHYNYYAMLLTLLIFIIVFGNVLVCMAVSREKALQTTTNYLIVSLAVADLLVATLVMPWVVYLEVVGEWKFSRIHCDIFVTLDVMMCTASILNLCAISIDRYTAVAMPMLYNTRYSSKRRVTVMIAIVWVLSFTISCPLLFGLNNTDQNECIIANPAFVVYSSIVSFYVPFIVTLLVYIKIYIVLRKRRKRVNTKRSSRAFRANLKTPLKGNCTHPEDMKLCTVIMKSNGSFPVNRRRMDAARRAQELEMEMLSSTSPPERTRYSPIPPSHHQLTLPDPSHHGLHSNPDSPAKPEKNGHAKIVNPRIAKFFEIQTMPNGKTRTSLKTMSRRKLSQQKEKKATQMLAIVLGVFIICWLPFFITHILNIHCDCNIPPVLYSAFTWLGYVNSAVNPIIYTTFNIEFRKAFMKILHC
Procedure: D2 antagonist binding. Preparation of rat striatal membranes for (3H)-spiperone (specific activity 21-24 Ci/mmol) binding was carried out in a similar manner as described for D1-binding, Hyttel et al., J. Neural. Transm., 68, 171 (1987).
IC50 values were calculated by semi-log plot and linear regression analysis.

5-HT receptor [3] = assay: 5-HTP accumulation (5-HT synthesis rate) in non-pretreated rats after NSD 1015; assay type: in vivo, rat (male Sprague-Dawley); settings: 100 sc
Procedure: observations are commented to the right. After the session the rats were
accumulation in the NErich cortical regions and 5HTP in the limbic
as §4

5-HT receptor [4] = assay: 5-HT metabolism (5-HIAA levels) in habituated rats; assay type: in vivo, rat (male Sprague-Dawley); settings: 100 μmol/kg sc
Procedure: as §1
SEM. The rats were immediately killed after the activity session, striata
as §2, §3
Injection volumes were 5 mL/kg. […]

5-HT1A = target: T2, 5-HT1A (Rattus norvegicus, UniProt P19327); assay: 5-HT1A radioligand binding ([3H]-8-OH-DPAT); set-up: species or system rat (male Sprague-Dawley); settings: [3H]-8-OH-DPAT, rat cortex; read-out: in vitro binding IC50, 5HT1A
T2 construct: the whole brain with the exception of the brainstem and cerebellum was rapidly removed; from tissue
T2 sequence (P19327 1-422): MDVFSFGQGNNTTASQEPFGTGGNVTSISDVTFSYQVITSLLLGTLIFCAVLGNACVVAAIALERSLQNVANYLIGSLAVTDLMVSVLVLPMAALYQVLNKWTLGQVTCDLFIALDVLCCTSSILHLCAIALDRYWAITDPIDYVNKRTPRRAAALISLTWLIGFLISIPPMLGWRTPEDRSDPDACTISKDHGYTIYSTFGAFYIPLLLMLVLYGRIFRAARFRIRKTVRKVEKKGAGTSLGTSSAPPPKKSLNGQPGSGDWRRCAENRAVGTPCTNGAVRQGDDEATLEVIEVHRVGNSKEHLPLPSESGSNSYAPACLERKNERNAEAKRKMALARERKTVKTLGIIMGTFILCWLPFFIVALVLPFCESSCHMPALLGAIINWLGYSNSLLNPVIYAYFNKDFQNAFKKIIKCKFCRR
Procedure: ^b Serotonin 5HT1A ([^3 H]-8OH-DPAT, agonist) rat cortex.
5-HT1A radioligand binding. Male Sprague-Dawley rats (160-225 g) were killed by decapitation and the whole brain with the exception of the brainstem and cerebellum was rapidly removed, weighed and chilled in ice-cold 0.9% NaCl. Each brain was homogenized (Ultra-Turrax, 20 s) in 10 mL ice-cold 50 mM Tris buffer (pH 8.0 at 25° C.) containing 120 mM NaCl, 4 mM CaCl2 and 4 mM MgCl2 and centrifuged at 20,000 g's at 4° C. for 10 minutes. Pellets were resuspended in 10 mL fresh buffer and preincubated for 10 minutes in a 37° C. waterbath and then recentrifuged. Final pellets were homogenized in 100 volumes (w/v) of Tris buffer (as described above) containing 10 μM pargyline. The incubation tubes were kept on ice in triplicates and received 100 μL drug solution in water (or water for total binding) and 1000 μL membrane suspension (corresponds to 10 mg original tissue). The binding experiment was initiated by addition of 100 μL of (3H)-8-OH-DPAT (specific activity 143-158 Ci/mmol) in ascorbic acid (the final incubation concentration was 1 nM (3H)-8-OH-DPAT in 0.1% ascorbic acid). After incubation for 15 minutes at 37° C. the reaction was terminated by separation of the free radioligand from bound by rapid vacuum filtration using a cell harvester equipment (O. M. Teknik, Denmark). The tubes were rinsed with 4 mL and the filters (Whatman GF/F 25 mm) were washed twice with 4 mL ice-cold 0.9% NaCl.
The radioactivity of the filters was measured in a liquid scintillation counter (efficiency 41%) in 5 mL Picofluor®. Specific binding (70-75% of total binding) was defined as the radioactivity displaced by 10 μM 5-HT. IC50 values were calculated by semi-log plot and linear regression analysis.

habituated rats = assay: Locomotor activity and behavior in habituated rats; assay type: in vivo, rat (male Sprague-Dawley); settings: 100 μmol/kg sc, habituated rats
Procedure: as §1
prior to the activity session.
as §4
Locomotor activity was measured in rats which were habituated 60 minutes to the activity meters before drug injection. The activity was measured for the subsequent 60 minutes and expressed as % of controls (means ±SEM, n=4).

[5] = system: S-(-)-34-induced hypermotility; assay: Blockade of S-(-)-34-induced hypermotility in habituated rats; assay type: in vivo, rat; settings: for effect on S-(-)-34-induced hypermotility: habituated rats, S-(-)-34 50 μmol/kg s.c.
Procedure: It was shown that S-(-)-34-induced hypermotility in habituated rats is blocked by haloperidol, raclopride, reserpine and alpha-methyl-para tyrosine. […] The test compounds were administered consecutively at the same time.
The catecholamine synthesis inhibitor alpha-methyl-para-tyrosine (Sigma, alpha-MT;100 mg/kg, i.p.) was administered 60 minutes before […] ([…], s.c.).

[6] = system: d-amphetamine-induced hyperactivity; assay: d-Amphetamine-induced hyperactivity in habituated rats; assay type: in vivo, rat; settings: d-amphetamine 5.0 mg/kg, sc

## CCCCN1CCC[C@@H](c2cccc(OS(=O)(=O)C(F)(F)F)c2)C1 [S-(-)-16, S-(-)-3-((3-(Trifluoromethyl)sulfonyl)oxyphenyl-N-n-butyl)-piperidine]
DA receptor [1]
  DOPA acc Cortex: 89 ± 9 % of saline controls
  DOPA acc Stratium: 234 ± 10 % of saline controls
DA receptor [2]; read-out: DOPAC limbic
  response vs control in vivo at 100 µmol/kg: 186 ± 2%
DA receptor [2]; read-out: DOPAC striatum
  response vs control in vivo at 100 µmol/kg: 192 ± 4%
non-pretreated rats
  Gross Behavioral Observations: No change
non-pretreated rats; 30 min
  Motor Act.: 116 ± 21 % of saline controls
D2 receptors
  IC50: 1.3 µM
5-HT receptor [3]
  5-HTP acc Limbic Region: 82 ± 5 % of saline controls
5-HT receptor [4]
  5-HIAA limbic: 109 ± 4 % of saline treated controls
5-HT1A
  IC50: 1.3 µM
Habituated rats
  Behavioral observations: Activation
Habituated rats; Rattus norvegicus, 1 h, 60 min, read-out: Motor Activity
  response vs control in vivo at 100 µmol/kg: 345 ± 39%

## CC(N)(Cc1ccc(O)cc1)C(=O)O (stereo not drawn) [alpha-MT, alpha-methyl-para-tyrosine]
[5]; 100 mg/kg, i.p.
  motor activity, compound alone: did not affect the motor activity
[5]; alpha-MT 100 mg/kg, i.p., 60 minutes before
  effect on locomotor stimulation produced by S-(-)-34: partially inhibited the locomotor stimulation
[5]
  effect on S-(-)-34-induced hypermotility: blocked

## C[C@H](N)Cc1ccccc1 [d-amphetamine, reference compound]
[6]
  activity of habituated rats, d-amphetamine alone: 871±68 % of NaCl controls

## O=C(CCCN1CCC(O)(c2ccc(Cl)cc2)CC1)c1ccc(F)cc1 [haloperidol]
[5]
  effect on S-(-)-34-induced hypermotility: blocked

## CCN1CCC[C@H]1CNC(=O)c1c(O)c(Cl)cc(Cl)c1OC [raclopride]
[5]
  effect on S-(-)-34-induced hypermotility: blocked

## COC(=O)[C@H]1[C@H]2C[C@@H]3c4[nH]c5cc(OC)ccc5c4CCN3C[C@H]2C[C@@H](OC(=O)c2cc(OC)c(OC)c(OC)c2)[C@@H]1OC [reserpine]
[5]
  effect on S-(-)-34-induced hypermotility: blocked
[5]; reserpine 5 mg/kg, 18 h before, S-(-)-34 50 μmol/kg, sc
  effect on locomotor stimulation produced by S-(-)-34: completely prevented the locomotor stimulation
